Source: US9493412B2, “Pyrrolinone carboxamide compounds useful as endothelial lipase inhibitors” (BRISTOL-MYERS SQUIBB COMPANY, priority 2011, dated 2016)
pIC50: −log10 of the molar value.

target: endothelial lipase (EL) (Homo sapiens (Human), UniProt Q9Y5X9); assay: Endothelial lipase (EL) enzymatic assay with fluorescent substrate A10070 in DMPG vesicles; type: biochemical; conditions: conditioned media from HT-1080 cells overexpressing endogenous EL; 20 min preincubation at 37° C.; read-out: HLE_EL_CRC IC50
Sequence (Q9Y5X9 21-500): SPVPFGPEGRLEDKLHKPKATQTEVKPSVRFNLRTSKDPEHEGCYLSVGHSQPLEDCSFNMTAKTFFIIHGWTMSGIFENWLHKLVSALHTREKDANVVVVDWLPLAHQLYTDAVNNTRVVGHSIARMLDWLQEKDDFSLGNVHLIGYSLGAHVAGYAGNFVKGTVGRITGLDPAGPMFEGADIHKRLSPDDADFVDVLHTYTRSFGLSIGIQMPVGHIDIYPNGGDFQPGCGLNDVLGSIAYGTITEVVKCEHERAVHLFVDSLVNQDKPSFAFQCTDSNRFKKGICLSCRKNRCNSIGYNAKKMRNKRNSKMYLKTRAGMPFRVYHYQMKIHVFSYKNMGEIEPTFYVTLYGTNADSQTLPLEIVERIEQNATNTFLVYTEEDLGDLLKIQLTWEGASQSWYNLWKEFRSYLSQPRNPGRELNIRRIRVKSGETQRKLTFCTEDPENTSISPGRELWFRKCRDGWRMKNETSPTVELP
Experimental: Endothelial lipase activity was measured using a fluorescent substrate, A10070, (Invitrogen, CA) doped into an artificial vesicle containing DMPG (Avanti Polar Lipids) as the excipient. Vesicles were prepared by combining 285 uL of 1 mM
DMPG in a 1:1 mixture of MeOH and CHCl3 with 15 uL of 1 mM A10070 in a 1:1 mixture of MeOH and CHCl3. The mixture was dried under nitrogen and resuspended in 150 uL of 50 mM HEPES pH 8.0 buffer containing 100 mM NaCl and 0.2 mM EDTA. The sample was allowed to sit at rt for 15 min and then was sonicated 3×4 mins on ice with a Branson Sonicator using duty cycle 1. This preparation provides vesicles with a mole fraction of 0.05 for the FRET substrate.
The enzymatic assay was measured using white, opaque 96-well half area plates. Each well contained 60 uL of assay buffer (50 mM HEPES pH 8.0, 50 mM NaCl and 1 mM CaCl2) and 2 ul of a DMSO solution containing compound of interest. Conditioned media obtained from HT-1080 cells, which were transformed by RAGE technology (Athersys) to overexpress endogenous EL, was added and the reaction was allowed to incubate for 20 min at 37° C. with gentle agitation. The reaction was started by the addition of 20 uL of a 1:4 dilution of vesicles. The final total reaction volume was 100 uL. The reaction rates were measured on a Gemini plate reader with an excitation wavelength of 488 nm and a emission of 530 nm. Readings were taken every 20 seconds for 10 min with agitation between each reading. The slope of the linear portion of the readout was used to calculate the rate of the reaction.
The exemplified examples disclosed in the present invention were tested in the EL assay described above and found having EL inhibitory activity.

Structure (SMILES) | pIC50
CN1CC(C(=O)NC2CC[C@H](c3ccccc3)C2)=C(O)C1=O (single isomer, unassigned; isomer a) [Example 173] | 5.07
CN1CC(C(=O)NCc2ccc(Oc3ccc(F)cc3)cc2)=C(O)C1=O [Example 8, N-(4-(4-fluorophenoxy)benzyl)-4-hydroxy-1-methyl-5-oxo-2,5-dihydro-1H-pyrrole-3-carboxamide] | 7.31
CN1CC(C(=O)NCc2ccccc2-c2ccccc2)=C(O)C1=O [Example 18, N-(biphenyl-2-ylmethyl)-4-hydroxy-1-methyl-5-oxo-2,5-dihydro-1H-pyrrole-3-carboxamide] | 7.57
CC(C)CN1CC(C(=O)NCCCCc2nc(-c3ccc(Cl)c(Cl)c3)no2)=C(O)C1=O [Example 21, N-(4-(3-(3,4-dichlorophenyl)-1,2,4-oxadiazol-5-yl)butyl)-4-hydroxy-1-isobutyl-5-oxo-2,5-dihydro-1H-pyrrole-3-carboxamide] | 7.81
CN1CC(C(=O)NCc2ccc(OC3CCOCC3)cc2)=C(O)C1=O [Example 22, 4-hydroxy-1-methyl-5-oxo-N-(4-(tetrahydro-2H-pyran-4-yloxy)benzyl)-2,5-dihydro-1H-pyrrole-3-carboxamide] | 6.57
CN1CC(C(=O)NCc2ccc(C(=O)N3CCCCC3)cc2)=C(O)C1=O [Example 24, 4-hydroxy-1-methyl-5-oxo-N-(4-(piperidine-1-carbonyl)benzyl)-2,5-dihydro-1H-pyrrole-3-carboxamide] | 5.03
Cc1ccc(Oc2ccc(CNC(=O)C3=C(O)C(=O)N(C)C3)cc2)c(C)c1 [Example 34, N-(4-(2,4-dimethylphenoxy)benzyl)-4-hydroxy-1-methyl-5-oxo-2,5-dihydro-1H-pyrrole-3-carboxamide] | 7.49
CN1CC(C(=O)NCc2cccc(-c3ccccc3Cl)c2)=C(O)C1=O [Example 62, N-((2′-chlorobiphenyl-3-yl)methyl)-4-hydroxy-1-methyl-5-oxo-2,5-dihydro-1H-pyrrole-3-carboxamide] | 6.61
CN1CC(C(=O)NCc2cccc(-c3ccccc3F)c2)=C(O)C1=O [Example 63, N-((2′-fluorobiphenyl-3-yl)methyl)-4-hydroxy-1-methyl-5-oxo-2,5-dihydro-1H-pyrrole-3-carboxamide] | 6.60
CC(=O)c1cccc(-c2cccc(CNC(=O)C3=C(O)C(=O)N(C)C3)c2)c1 [Example 66, N-((3′-acetylbiphenyl-3-yl)methyl)-4-hydroxy-1-methyl-5-oxo-2,5-dihydro-1H-pyrrole-3-carboxamide] | 6.55
CN1CC(C(=O)NCc2cccc(-c3ccc(CNS(C)(=O)=O)cc3)c2)=C(O)C1=O [Example 83, 4-hydroxy-1-methyl-N-((4′-(methylsulfonamidomethyl)biphenyl-3-yl)methyl)-5-oxo-2,5-dihydro-1H-pyrrole-3-carboxamide] | 6.59
CC(=O)NCc1ccc(-c2cccc(CNC(=O)C3=C(O)C(=O)N(C)C3)c2)cc1 [Example 85, N-((4′-(acetamidomethyl)biphenyl-3-yl)methyl)-4-hydroxy-1-methyl-5-oxo-2,5-dihydro-1H-pyrrole-3-carboxamide] | 6.62
C[C@@H](NC(=O)C1=C(O)C(=O)N(C)C1)c1cccc(-c2cccc(C(F)(F)F)c2)c1 [Example 91, (R)-4-hydroxy-1-methyl-5-oxo-N-(1-(3′-(trifluoromethyl)biphenyl-3-yl)ethyl)-2,5-dihydro-1H-pyrrole-3-carboxamide] | 6.57
C[C@@H](NC(=O)C1=C(O)C(=O)N(C)C1)c1cccc(-c2cccc(F)c2)c1 [Example 92, (R)-N-(1-(3′-fluorobiphenyl-3-yl)ethyl)-4-hydroxy-1-methyl-5-oxo-2,5-dihydro-1H-pyrrole-3-carboxamide] | 6.61
C[C@@H](NC(=O)C1=C(O)C(=O)N(C)C1)c1cccc(-c2cccc(C#N)c2)c1 [Example 96, (R)-N-(1-(3′-cyanobiphenyl-3-yl)ethyl)-4-hydroxy-1-methyl-5-oxo-2,5-dihydro-1H-pyrrole-3-carboxamide] | 6.56
C[C@@H](NC(=O)C1=C(O)C(=O)N(C)C1)c1cccc(-c2cccc(C(N)=O)c2)c1 [Example 103, (R)-N-(1-(3′-carbamoylbiphenyl-3-yl)ethyl)-4-hydroxy-1-methyl-5-oxo-2,5-dihydro-1H-pyrrole-3-carboxamide] | 7.30
CC(=O)NCc1ccc(-c2cccc([C@@H](C)NC(=O)C3=C(O)C(=O)N(C)C3)c2)cc1 [Example 104, (R)-N-(1-(4′-(acetamidomethyl)biphenyl-3-yl)ethyl)-4-hydroxy-1-methyl-5-oxo-2,5-dihydro-1H-pyrrole-3-carboxamide] | 6.60
CCN1CC(C(=O)N[C@@H]2CCC(c3ccccc3)c3ccccc32)=C(O)C1=O (stereo partly drawn) [Example 146, 1-ethyl-4-hydroxy-5-oxo-N-((1R)-4-phenyl-1,2,3,4-tetrahydronaphthalen-1-yl)-2,5-dihydro-1H-pyrrole-3-carboxamide] | 7.30
CN1CC(C(=O)NCC2CCN(C(=O)c3ccc(Cl)c(Cl)c3)CC2)=C(O)C1=O [Example 157, N-((1-(3,4-dichlorobenzoyl)piperidin-4-yl)methyl)-4-hydroxy-1-methyl-5-oxo-2,5-dihydro-1H-pyrrole-3-carboxamide] | 5.31
O=C(N[C@H]1CC[C@@H](c2ccccc2)CC1)C1=C(O)C(=O)N(CCCC(F)(F)F)C1 [Example 168, 4-hydroxy-5-oxo-N-(cis-4-phenylcyclohexyl)-1-(4,4,4-trifluorobutyl)-2,5-dihydro-1H-pyrrole-3-carboxamide] | 6.60
O=C(N[C@H]1CC[C@@H](c2ccccc2)CC1)C1=C(O)C(=O)N(CC(F)(F)C(F)(F)F)C1 [Example 169, 4-hydroxy-5-oxo-1-(2,2,3,3,3-pentafluoropropyl)-N-(cis-4-phenylcyclohexyl)-2,5-dihydro-1H-pyrrole-3-carboxamide] | 5.14
O=C(N[C@H]1CC[C@@H](c2ccccc2)CC1)C1=C(O)C(=O)N(CCS(=O)(=O)c2ccccc2)C1 [Example 172, 4-hydroxy-5-oxo-N-(cis-4-phenylcyclohexyl)-1-(2-(phenylsulfonyl)ethyl)-2,5-dihydro-1H-pyrrole-3-carboxamide] | 5.33
CN(CCN1CC(C(=O)N[C@H]2CC[C@@H](c3ccccc3)CC2)=C(O)C1=O)C(=O)/C=C/C(F)(F)F [Example 178, 4-hydroxy-5-oxo-N-(cis-4-phenylcyclohexyl)-1-(2-((E)-4,4,4-trifluoro-N-methylbut-2-enamido)ethyl)-2,5-dihydro-1H-pyrrole-3-carboxamide] | 5.00
O=C(N[C@H]1CC[C@@H](c2ccccc2)CC1)C1=C(O)C(=O)N(C2CCN(c3ccc(F)cc3)CC2)C1 [Example 179, 1-(1-(4-fluorophenyl)piperidin-4-yl)-4-hydroxy-5-oxo-N-(cis-4-phenylcyclohexyl)-2,5-dihydro-1H-pyrrole-3-carboxamide] | 5.51
CNCCCN1CC(C(=O)N[C@H]2CC[C@@H](c3ccccc3)CC2)=C(O)C1=O [Example 181, 4-hydroxy-1-(3-(methylamino)propyl)-5-oxo-N-(cis-4-phenylcyclohexyl)-2,5-dihydro-1H-pyrrole-3-carboxamide] | 5.24
CN1CC(N2CC(C(=O)N[C@H]3CC[C@@H](c4ccccc4)CC3)=C(O)C2=O)CC1=O (stereo partly drawn) [Example 196, 4-hydroxy-1-(1-methyl-5-oxopyrrolidin-3-yl)-5-oxo-N-(cis-4-phenylcyclohexyl)-2,5-dihydro-1H-pyrrole-3-carboxamide] | 5.08
CN(CCN1CC(C(=O)N[C@H]2CC[C@@H](c3ccccc3)CC2)=C(O)C1=O)c1ccccc1 [Example 210, 4-hydroxy-1-(2-(methyl(phenyl)amino)ethyl)-5-oxo-N-(cis-4-phenylcyclohexyl)-2,5-dihydro-1H-pyrrole-3-carboxamide] | 5.18
CCN1CC(C(=O)NCC2CCc3cnc(-c4ccc(Cl)c(Cl)c4)n3C2)=C(O)C1=O (centres unmarked) [Example 214, N-((3-(3,4-Dichlorophenyl)-5,6,7,8-tetrahydroimidazo[1,5-a]pyridin-6-yl)methyl)-1-ethyl-4-hydroxy-5-oxo-2,5-dihydro-1H-pyrrole-3-carboxamide] | 6.34
CCN1CC(C(=O)N[C@@H]2CCc3cc(-c4ccccc4)ccc32)=C(O)C1=O [Example 218, (R)-1-ethyl-4-hydroxy-5-oxo-N-(5-phenyl-2,3-dihydro-1H-inden-1-yl)-2,5-dihydro-1H-pyrrole-3-carboxamide] | 7.36
